Measurements from patent US12612410B2 (CHILDREN'S HOSPITAL MEDICAL CENTER, priority 2020, dated 2026).

Assays:
Format in all cases: biochemical
Details in all cases: isolated kinase, 33P-ATP
IRAK1 = biological target: T1, IRAK1 (Homo sapiens, UniProt P51617); test: RBC HotSpot Kinase Assay, IRAK1
T1 construct: purchased Reaction Biology (RBC), HotSpot kinase assay
From the text: (§1) This assay uses the isolated kinase enzyme. This assay is very useful for determining competition of the inhibitor for ATP and/or substrates and for measuring the kinetics of enzyme inhibition. […] Unlike kinase binding assays that measure competition for ATP, the HotSpot Kinase Assay is a functional assay that measures catalytic activity; as such it measures relative functional potency regardless of the mechanism of enzyme inhibition. This assay uses the form of the various enzymes that are easiest to express, which may not necessarily be the form of the enzyme that exist in the cell. (Sometimes the carboxy terminus has been truncated to aid in expression, or, if it is a receptor kinase, the enzyme itself is isolated from the other parts of the receptor that are involved in regulating kinase activity.)
(§2) The reagent used was as follows: Base Reaction buffer; 20 mM Hepes (pH 7.5), 10 mM MgCl2, 1 mM EGTA, 0.01% Brij35, 0.02 mg/ml BSA, 0.1 mM Na3VO4, 2 mM DTT, 1% DMSO. Required cofactors were added individually to each kinase reaction.
(§3) The reaction procedure was as follows: • 1) Substrates were prepared in freshly prepared Reaction Buffer. • 2) Any required cofactors were delivered to the substrate solution above. • 3) Kinase was delivered into the substrate solution and gently mixed. • 4) Compounds were delivered in 100% DMSO into the kinase reaction mixture by Acoustic technology (Echo550; nanoliter range), followed by incubation for 20 min at room temp. • 5)^33P-ATP was delivered into the reaction mixture to initiate the reaction. • 6) The mixture was incubated for 2 hours at room temperature. • 7) Kinase activity was detected by P81 filter-binding method.

FLT3 = biological target: T2, FLT3 (Homo sapiens, UniProt P36888); test: RBC HotSpot Kinase Assay, FLT3; design: purchased Reaction Biology (RBC), HotSpot kinase assay
T2 sequence (P36888 27-993): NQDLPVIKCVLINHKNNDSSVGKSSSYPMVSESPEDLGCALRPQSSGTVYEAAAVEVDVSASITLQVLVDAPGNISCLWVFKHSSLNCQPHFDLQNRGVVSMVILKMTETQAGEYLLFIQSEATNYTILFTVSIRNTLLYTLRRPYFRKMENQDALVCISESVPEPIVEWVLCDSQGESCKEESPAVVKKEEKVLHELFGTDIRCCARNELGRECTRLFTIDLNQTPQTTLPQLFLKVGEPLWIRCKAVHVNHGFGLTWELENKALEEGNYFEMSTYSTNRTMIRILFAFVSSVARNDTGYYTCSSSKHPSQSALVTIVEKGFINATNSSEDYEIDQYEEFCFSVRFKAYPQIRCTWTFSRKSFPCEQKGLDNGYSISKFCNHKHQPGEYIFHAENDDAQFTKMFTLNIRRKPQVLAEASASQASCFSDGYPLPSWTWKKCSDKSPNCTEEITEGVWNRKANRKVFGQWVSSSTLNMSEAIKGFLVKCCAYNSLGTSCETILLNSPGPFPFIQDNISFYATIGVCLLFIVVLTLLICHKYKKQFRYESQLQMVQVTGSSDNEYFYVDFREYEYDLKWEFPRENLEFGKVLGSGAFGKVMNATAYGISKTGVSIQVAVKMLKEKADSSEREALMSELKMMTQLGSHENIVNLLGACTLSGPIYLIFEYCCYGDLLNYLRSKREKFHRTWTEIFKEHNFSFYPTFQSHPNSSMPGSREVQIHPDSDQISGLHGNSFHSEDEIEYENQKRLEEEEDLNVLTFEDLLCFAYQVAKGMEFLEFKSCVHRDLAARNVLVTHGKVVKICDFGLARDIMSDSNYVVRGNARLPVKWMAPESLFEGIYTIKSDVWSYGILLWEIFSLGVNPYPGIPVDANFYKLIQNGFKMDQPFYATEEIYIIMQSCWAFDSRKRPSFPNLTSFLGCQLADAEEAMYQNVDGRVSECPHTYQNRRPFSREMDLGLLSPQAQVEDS
From the text: as §1, §2, §3

IRAK4 = biological target: T3, IRAK4 (Homo sapiens, UniProt Q9NWZ3); test: RBC HotSpot Kinase Assay, IRAK4; design: purchased Reaction Biology (RBC), HotSpot kinase assay
T3 sequence (Q9NWZ3 1-460): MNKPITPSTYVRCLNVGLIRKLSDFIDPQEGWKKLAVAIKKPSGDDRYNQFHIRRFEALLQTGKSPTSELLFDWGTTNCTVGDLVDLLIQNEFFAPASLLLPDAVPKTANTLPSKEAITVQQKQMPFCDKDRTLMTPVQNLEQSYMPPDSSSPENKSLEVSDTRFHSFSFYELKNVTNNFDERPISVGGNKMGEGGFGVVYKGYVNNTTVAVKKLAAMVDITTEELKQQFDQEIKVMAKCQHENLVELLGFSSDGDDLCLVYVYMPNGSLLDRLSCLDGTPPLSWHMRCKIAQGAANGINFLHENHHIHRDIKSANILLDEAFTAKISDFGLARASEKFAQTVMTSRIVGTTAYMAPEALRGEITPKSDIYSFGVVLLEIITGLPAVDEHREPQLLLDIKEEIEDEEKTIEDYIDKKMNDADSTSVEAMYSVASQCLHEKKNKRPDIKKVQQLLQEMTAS
From the text: as §1, §2, §3

T1 sequence (P51617 whole entry): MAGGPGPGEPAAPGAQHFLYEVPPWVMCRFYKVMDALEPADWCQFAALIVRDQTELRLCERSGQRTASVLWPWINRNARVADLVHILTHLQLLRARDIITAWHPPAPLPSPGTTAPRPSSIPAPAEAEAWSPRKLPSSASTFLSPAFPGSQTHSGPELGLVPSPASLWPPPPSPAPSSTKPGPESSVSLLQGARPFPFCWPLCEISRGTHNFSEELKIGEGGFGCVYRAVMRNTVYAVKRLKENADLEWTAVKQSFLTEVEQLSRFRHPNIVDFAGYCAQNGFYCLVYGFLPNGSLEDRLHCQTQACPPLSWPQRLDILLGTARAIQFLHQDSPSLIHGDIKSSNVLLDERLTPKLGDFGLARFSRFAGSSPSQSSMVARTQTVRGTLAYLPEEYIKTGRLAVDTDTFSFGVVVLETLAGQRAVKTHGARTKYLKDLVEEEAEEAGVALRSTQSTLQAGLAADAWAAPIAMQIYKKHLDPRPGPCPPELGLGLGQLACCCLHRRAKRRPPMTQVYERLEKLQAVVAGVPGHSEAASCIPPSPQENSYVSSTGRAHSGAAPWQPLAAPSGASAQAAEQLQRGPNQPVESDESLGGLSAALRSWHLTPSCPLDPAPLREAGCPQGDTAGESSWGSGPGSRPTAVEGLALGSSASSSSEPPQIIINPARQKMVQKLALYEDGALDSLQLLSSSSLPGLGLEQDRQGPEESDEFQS

SMILES | IC50 (IRAK1) [nM] | IC50 (FLT3) [nM] | IC50 (IRAK4) [nM]
CC1(c2cn3c(-c4cccc(N[C@H]5CNC[C@@H]5C(F)(F)F)n4)cnc3cn2)CC1 [Compound 4, 6-(6-(1-methylcyclopropyl)imidazo[1,2-a]pyrazin-3-yl)-N-((3R,4S)-4-(trifluoromethyl)pyrrolidin-3-yl)pyridin-2-amine] | 451 | 0.9 | 2
CC1(c2cn3c(-c4cccc(N[C@H]5CCNC[C@@H]5F)n4)cnc3cn2)CC1 [Compound 6, N-((3S,4S)-3-fluoropiperidin-4-yl)-6-(6-(1-methylcyclopropyl)imidazo[1,2-a]pyrazin-3-yl)pyridin-2-amine] | 926 | 0.6 | 86
C[C@H]1C[C@@H](Nc2cccc(-c3cnc4cnc(C5(C)CC5)cn34)n2)CCN1 [Compound 7, 6-(6-(1-methylcyclopropyl)imidazo[1,2-a]pyrazin-3-yl)-N-((2S,4S)-2-methylpiperidin-4-yl)pyridin-2-amine] | 3280 | 1 | 1020
C[C@@H]1CNC[C@H](Nc2cccc(-c3cnc4cnc(C5(C(F)(F)F)CC5)cn34)n2)C1 [Compound 15, N-((3R,5S)-5-methylpiperidin-3-yl)-6-(6-(1-(trifluoromethyl)cyclopropyl)imidazo[1,2-a]pyrazin-3-yl)pyridin-2-amine] | 736 | 3 | 1020
FC(F)c1cn2c(-c3cccc(N[C@H]4CNCC45CC5)n3)cnc2cn1 [Compound 20, (R)-N-(6-(6-(difluoromethyl)imidazo[1,2-a]pyrazin-3-yl)pyridin-2-yl)-5-azaspiro[2.4]heptan-7-amine] | 150 | < 0.5 | 2
C[C@H]1C[C@@H](Nc2cccc(-c3cnc4cnc(C(F)F)cn34)n2)CCN1 [Compound 22, 6-(6-(difluoromethyl)imidazo[1,2-a]pyrazin-3-yl)-N-((2S,4S)-2-methylpiperidin-4-yl)pyridin-2-amine] | 474 | 1 | 669
FC(F)c1cn2c(-c3cccc(N[C@H]4CNCC4(F)F)n3)cnc2cn1 [Compound 23, 6-(6-(difluoromethyl)imidazo[1,2-a]pyrazin-3-yl)-N-(4,4-difluoropyrrolidin-3-yl)pyridin-2-amine] | 185 | < 0.5 | 7
CC1(C)CCNCC1Nc1cccc(-c2cnc3cnc(C(F)F)cn23)n1 (stereo not drawn) [Compound 24, 6-(6-(difluoromethyl)imidazo[1,2-a]pyrazin-3-yl)-N-(4,4-dimethylpiperidin-3-yl)pyridin-2-amine] | 236 | < 0.5 | 2
FC(F)c1cn2c(-c3cccc(N[C@H]4CNCCC4(F)F)n3)cnc2cn1 [Compound 26, (S)-6-(6-(difluoromethyl)imidazo[1,2-a]pyrazin-3-yl)-N-(4,4-difluoropiperidin-3-yl)pyridin-2-amine] | 103 | < 0.5 | 0.7
CC(C)(O)c1cn2c(-c3cccc(N[C@@H]4CCNC4)n3)cnc2cn1 [Compound 27, (R)-2-(3-(6-(pyrrolidin-3-ylamino)pyridin-2-yl)imidazo[1,2-a]pyrazin-6-yl)propan-2-ol] | 116 | 0.8 | 0.9
CC(C)(O)c1cn2c(-c3cccc(N[C@H]4CNC[C@@H](F)C4)n3)cnc2cn1 [Compound 32, 2-(3-(6-(((3R,5S)-5-fluoropiperidin-3-yl)amino)pyridin-2-yl)imidazo[1,2-a]pyrazin-6-yl)propan-2-ol] | 385 | < 0.5 | 3
FC(F)(F)COc1cn2c(-c3cccc(N[C@@H]4CCCNC4)n3)cnc2cn1 [Compound 37, (R)-N-(piperidin-3-yl)-6-(6-(2,2,2-trifluoroethoxy)imidazo[1,2-a]pyrazin-3-yl)pyridin-2-amine] | 273 | < 0.5 | 11
FC(F)(F)COc1cn2c(-c3cccc(N[C@H]4CNC[C@@H]4C(F)(F)F)n3)cnc2cn1 [Compound 39, 6-(6-(2,2,2-trifluoroethoxy)imidazo[1,2-a]pyrazin-3-yl)-N-((3R,4S)-4-(trifluoromethyl)pyrrolidin-3-yl)pyridin-2-amine] | 301 | < 0.5 | 8
F[C@H]1CNCC[C@@H]1Nc1cccc(-c2cnc3cnc(OCC(F)(F)F)cn23)n1 [Compound 41, N-((3S,4S)-3-fluoropiperidin-4-yl)-6-(6-(2,2,2-trifluoroethoxy)imidazo[1,2-a]pyrazin-3-yl)pyridin-2-amine] | 142 | < 0.5 | 110
C[C@H]1C[C@@H](Nc2cccc(-c3cnc4cnc(OCC(F)(F)F)cn34)n2)CCN1 [Compound 42, N-((2S,4S)-2-methylpiperidin-4-yl)-6-(6-(2,2,2-trifluoroethoxy)imidazo[1,2-a]pyrazin-3-yl)pyridin-2-amine] | 413 | 0.6 | 339
FC(F)n1cc(-c2cn3c(-c4cccc(N[C@@H]5CCCNC5)n4)cnc3cn2)cn1 [Compound 44, (R)-6-(6-(1-(difluoromethyl)-1H-pyrazol-4-yl)imidazo[1,2-a]pyrazin-3-yl)-N-(piperidin-3-yl)pyridin-2-amine] | 4280 | < 0.5 | 37
c1cc(N[C@@H]2CCCNC2)nc(-c2cnc3cnc(-c4cnn(C5CC5)c4)cn23)c1 [Compound 45, (R)-6-(6-(1-cyclopropyl-1H-pyrazol-4-yl)imidazo[1,2-a]pyrazin-3-yl)-N-(piperidin-3-yl)pyridin-2-amine] | 1990 | < 0.5 | 12
CC(C)(O)Cn1cc(-c2cn3c(-c4cccc(N[C@@H]5CCCNC5)n4)cnc3cn2)cn1 [Compound 46, (R)-2-methyl-1-(4-(3-(6-(piperidin-3-ylamino)pyridin-2-yl)imidazo[1,2-a]pyrazin-6-yl)-1H-pyrazol-1-yl)propan-2-ol] | 3640 | < 0.5 | 8
c1cc(N[C@@H]2CCCNC2)nc(-c2cnc3cnc(-c4cnn5ccccc45)cn23)c1 [Compound 47] | 154 | < 0.5 | 7
FC(F)n1cc(-c2cn3c(-c4cccc(N[C@H]5CNC[C@@H]5F)n4)cnc3cn2)cn1 [Compound 53, 6-(6-(1-(difluoromethyl)-1H-pyrazol-4-yl)imidazo[1,2-a]pyrazin-3-yl)-N-((3S,4S)-4-fluoropyrrolidin-3-yl)pyridin-2-amine] | 1250 | 0.6 | 12
